From patent US20240343720A1, “AAK1 INHIBITOR AND USE THEREOF” (Xizang Haisco Pharmaceutical Co., Ltd., priority 2021, published 2024)

The compounds below were run against AAK1 (Homo sapiens (Human), UniProt Q2M2I8) (assay: In vitro AAK1 enzyme activity assay (ADP-Glo)). Settings: read-out: Inhibitory activity against AAK1 IC50.
Format: biochemical
Experimental: Compound stock solution (concentration: 10 mM, dissolved in DMSO) was diluted with DMSO to 0.2 mM and then diluted with DMSO in 5-fold gradient to obtain compound solutions with 10 concentrations. Subsequently, the compound solutions with different concentrations were diluted 50-fold in 1×kinase reaction buffer (containing 40 mM Tris, 20 mM MgCl2, 0.1% BSA and 0.5 mM DTT) for later use. AAK1 (Signalchem, Cat #A01-11G-10) was diluted with 1×kinase reaction buffer to 2-fold the final concentration (final concentrations: 30 nM and 28 nM). AAK1 was added to a 384-well white plate at 2 μL/well, and the compounds were then added at 1 μL/well. The plate was sealed with a plate-sealing film, centrifuged at 1000 rpm for 30 seconds and then placed at room temperature for 10 minutes. A mixed solution of ATP (Promega, Cat #V914B) and substrate Micro2 (GenScript, Cat #PE0890) was formulated at 4-fold the final concentration (for AAK1, the corresponding final concentrations of ATP: 15 μM and 5 μM, and the corresponding final concentration of Micro2: 0.1 mg/mL). To the reaction plate was added the mixed solution of ATP and the substrate at 1 μL/well. The plate was sealed with a plate-sealing film and centrifuged at 1000 rpm for 30 seconds. The reaction was carried out at room temperature for 60 minutes (AAK1). ADP-Glo (Promega, Cat #V9102) was transferred to the 384-well plate at 4 μL/well and centrifugation was carried out at 1000 rpm for 1 minute. The mixture was incubated at 25° C. for 40 minutes. A detection solution was transferred to the 384-well plate at 8 μL/well and centrifugation was carried out at 1000 rpm for 1 minute. The resulting mixture was incubated at 25° C. for 40 minutes. The RLU (Relative luminescence unit) signal values were read using a Biotek multilable microplate reader and the percent inhibition was calculated according to the following formula: [1−(LUMcompound−LUMpositive control)/(LUMnegative control−LUMpositive control)]×100. IC50 values were calculated using Graphpad 7.0 software using a four-parameter non-linear fit equation.

Sequence of AAK1 (Q2M2I8 27-365): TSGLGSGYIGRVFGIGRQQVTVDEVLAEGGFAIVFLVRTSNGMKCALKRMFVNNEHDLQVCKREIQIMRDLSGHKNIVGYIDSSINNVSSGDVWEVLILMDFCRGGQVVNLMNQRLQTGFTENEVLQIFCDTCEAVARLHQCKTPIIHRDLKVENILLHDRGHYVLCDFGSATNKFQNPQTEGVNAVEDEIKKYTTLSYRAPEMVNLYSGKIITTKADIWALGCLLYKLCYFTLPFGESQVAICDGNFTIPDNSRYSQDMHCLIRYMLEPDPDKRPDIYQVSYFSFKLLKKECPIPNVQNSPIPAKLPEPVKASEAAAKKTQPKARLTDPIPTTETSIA

Row | IC50 [nM] | SMILES
1 | 22.5 | C=C(C)C[C@](C)(N)COc1ccc(-c2ccnc(NC(=O)C3CC(F)(F)C3)c2)cc1C#N [Compound 24, (S)-N-(4-(4-((2-amino-2,4-dimethylpent-4-en-1-yl)oxy)-3-cyanophenyl)pyridin-2-yl)-3,3-difluorocyclobutane-1-carboxamide]
2 | 32.1 | NC1(COc2ccc(-c3ccnc(C(F)F)c3)nc2C(F)F)CCCC1 [Compound 22, 1-(((2′,6-bis(difluoromethyl)-[2,4′-bipyridin]-5-yl)oxy)methyl)cyclopentan-1-amine]
3 | 13.8 | C=C(C)C[C@](C)(N)COc1cnc(-c2ccnc(NC(=O)OC)c2)cc1C(F)(F)F [Compound 7, Methyl-(S)-(5-((2-amino-2,4-dimethylpent-4-en-1-yl)oxy)-4-(trifluoromethyl) [2,4′-bipyridin]-2′-yl)carbamate]
4 | 6.37 | C=C(C)C[C@](C)(N)COc1ccc(-c2ccnc(NC(C)=O)c2)cc1C#N [Compound 5, (S)-N-(4-(4-((2-amino-2,4-dimethylpent-4-en-1-yl)oxy)-3-cyanophenyl)pyridin-2-yl)acetamide]
5 | 26.8 | C=C(C)C[C@](C)(N)COc1ncc(-c2ccnc(NC(=O)OC)c2)cc1C(F)F [Compound 17, (S)-methyl-(6-((2-amino-2,4-dimethylpent-4-en-1-yl)oxy)-5-(difluoromethyl)-[3,4′-bipyridin]-2′-yl)carbamate]
6 | 9.55 | COC(=O)Nc1cc(-c2cnc(OC[C@@](C)(N)CC(C)(C)F)c(C(F)F)c2)ccn1 [Compound 18, (S)-methyl-(6-((2-amino-4-fluoro-2,4-dimethylpentyl)oxy)-5-(difluoromethyl)-[3,4′-bipyridin]-2′-yl)carbamate]
7 | 11 | C=C(C)C[C@](C)(N)COc1ccc(-c2ccnc(NC(=O)[C@H]3CC3(F)F)c2)cc1C#N [Compound 29, (1R)-N-(4-(4-{[(2S)-2-amino-2,4-dimethylpent-4-en-1-yl]oxy}-3-cyanophenyl)pyridin-2-yl)-2,2-difluorocyclopropane-1-carboxamide]
8 | 9.08 | C=C(C)C[C@](C)(N)COc1ccc(-c2ccnc(NC(=O)[C@@H]3CC3(F)F)c2)cc1C#N [Compound 30, (1S)-N-(4-(4-{[(2S)-2-amino-2,4-dimethylpent-4-en-1-yl]oxy}-3-cyanophenyl)pyridin-2-yl)-2,2-difluorocyclopropane-1-carboxamide]
9 | 43.1 | COC(=O)Nc1cc(-c2cc(C(F)(F)F)c(OCC(C)(N)C=C(C)C)cn2)ccn1 (stereo not drawn) [Compound 27, Methyl (5-((2-amino-2,4-dimethylpent-3-en-1-yl)oxy)-4-(trifluoromethyl)-[2,4′-bipyridin]-2′-yl)carbamate]
10 | 19.8 | C=C(C)C[C@](C)(N)COc1ccc(-c2ccnc(NC(C)=O)c2)nc1C(F)F [Compound 15, (S)-N-(5-((2-amino-2,4-dimethylpent-4-en-1-yl)oxy)-6-(difluoromethyl)-[2,4′-bipyridin]-2′-yl)acetamide]
11 | 9.29 | CC(N)(COc1ccc(-c2ccnc(C(F)F)c2)nc1C(F)F)CC1(C)CC1 (stereo not drawn) [Compound 2, 1-((2′,6-bis(difluoromethyl)-[2,4′-bipyridin]-5-yl)oxy)-2-methyl-3-(1-methylcyclopropyl) propan-2-amine]
12 | 11.9 | C=C(C)C[C@](C)(N)COc1ccc(-c2ccnc(NC(=O)[C@H]3C[C@H]3F)c2)cc1C#N [Compound 25, (1R,2R)-N-(4-(4-(((S)-2-amino-2,4-dimethylpent-4-en-1-yl)oxy)-3-cyanophenyl)pyridin-2-yl)-2-fluorocyclopropane-1-carboxamide]
13 | 14.7 | CC(C)(F)CC(C)(N)COc1ccc(-c2ccnc(C(F)F)c2)nc1C(F)F (stereo not drawn) [Compound 1, 1-((2′,6-bis(difluoromethyl)-[2,4′-bipyridin]-5-yl)oxy)-4-fluoro-2,4-dimethylpentan-2-amine]
14 | 38.6 | C=C(C)C[C@](C)(N)COc1ccc(-c2ccnc(NC(C)=O)c2)cc1C(N)=O [Compound 23, (S)-5-(2-acetamidopyridin-4-yl)-2-((2-amino-2,4-dimethylpent-4-en-1-yl)oxy)benzamide]
15 | 22.3 | CC(=O)Nc1cc(-c2ccc(OC[C@@](C)(N)CC(C)(C)F)c(C(F)F)n2)ccn1 [Compound 16, (S)-N-(5-((2-amino-4-fluoro-2,4-dimethylpentyl)oxy)-6-(difluoromethyl)-[2,4′-bipyridin]-2′-yl)acetamide]
16 | 11 | CC(=O)Nc1cc(-c2ccc(OC[C@@](C)(N)CC(C)(C)F)c(C#N)c2)ccn1 [Compound 6, (S)-N-(4-(4-((2-amino-4-fluoro-2,4-dimethylpentyl)oxy)-3-cyanophenyl)pyridin-2-yl)acetamide]
17 | 11.5 | C=C(C)C[C@](C)(N)COc1ccc(-c2ccnc(NC(=O)OC)c2)nc1C [Compound 10, Methyl (S)-(5-((2-amino-2,4-dimethylpent-4-en-1-yl)oxy)-6-methyl-[2,4′-bipyridin]-2′-yl)carbamate]
18 | 10.9 | COC(=O)Nc1cc(-c2ccc(OC[C@@](C)(N)CC3CC3)c(C(F)F)n2)ccn1 [Compound 31, Methyl (S)-(5-(2-amino-3-cyclopropyl-2-methylpropoxy)-6-(difluoromethyl)-[2,4′-bipyridin]-2′-yl)carbamate]
19 | 16.1 | COC(=O)Nc1cc(-c2cc(C(F)F)c(OC[C@@](C)(N)CC(C)(C)F)cn2)ccn1 [Compound 20, Methyl (S)-(5-((2-amino-4-fluoro-2,4-dimethylpentyl)oxy)-4-(difluoromethyl)-[2,4′-bipyridin]-2′-yl)carbamate]
20 | 5.96 | CC(=O)Nc1cc(-c2ccc(OC[C@@](C)(N)CC(C)(O)CO)c(C#N)c2)ccn1 (stereo partly drawn) [Compound 28, N-(4-(4-(((2S)-2-amino-4,5-dihydroxy-2,4-dimethylpentyl)oxy)-3-cyanophenyl)pyridin-2-yl)acetamide]

Row | SMILES | IC50 [nM]
21 | C[C@@](N)(COc1ccc(-c2ccnc(C(F)F)c2)nc1C(F)F)CC1CC1 [Compound 26, (S)-1-((2′,6-bis(difluoromethyl)-[2,4′-bipyridin]-5-yl)oxy)-3-cyclopropyl-2-methylpropan-2-amine] | 11
